In assay [1] the test system is IL-12 induced STAT4 phophorylation mediated by Tyk2/JAK2 (heterodimeric complex). As to the kind of experiment: IL-12 Induced pSTAT4 in Human PBMC. It is filed as cell-based. Particulars: 1.7 ng/mL IL-12. From the text: The IL-12 Induced pSTAT4 assay evaluates the inhibition of IL-12 induced STAT4 phophorylation mediated by Tyk2/JAK2 (heterodimeric complex).
For assay [2], the system named is GM-CSF induced STAT5 phosphorylation mediated by the JAK2/JAK2 homdimeric complex. As to the kind of experiment: GM-CSF Induced pSTAT5 in Human PBMC.
Source text: Human PBMC are isolated from buffy coat and are stored frozen for assays as needed.
Setting [3] is: Homo sapiens, PBMC, 20 min, read-out: PBMC_GMCSF_pSTAT5 IC50, human PBMC, GM-CSF 5 ng/mL for 20 minutes, pSTAT5.

The values that follow come from patent US10577373B2, “TYK2 inhibitors and uses thereof” (Nimbus Lakshmi, Inc., priority 2017, dated 2020).

Read-outs that look alike come from different tables or passages of the source.

One may read the IC50 as the midpoint of a concentration-inhibition curve. Consider `CNc1cc(Nc2cccn([C@H]3CC[C@@](C)(OC)CC3)c2=O)nc2c(C(=O)NC3CC3)cnn12` [I-359], for which the 50% inhibitory concentration (IC50) in assay [1] was 100 to 500 nM; in assay [2] (setting [3]), greater than 12500 nM.
`CNc1cc(Nc2cccn([C@H]3CC[C@@](C)(OC)CC3)c2=O)nc2c(C(=O)N[C@H]3C[C@H]3F)cnn12` [I-360]: the IC50 is less than 100 nM in assay [1] and greater than 50000 nM in assay [2] (setting [3]).
Consider `CNc1cc(Nc2cccn([C@H]3CC[C@](C)(OC)CC3)c2=O)nc2c(C(=O)N[C@H]3C[C@H]3F)cnn12` [I-362], for which the figures for the IC50 in assay [1] and in assay [2] (setting [3]) were less than 100 nM and greater than 50000 nM, respectively.
For `CNc1cc(Nc2cccn(CC3CCCCO3)c2=O)nc2c(C(=O)N[C@H]3C[C@H]3F)cnn12` (stereo partly shown) [I-365] the same measures were less than 100 nM and greater than 50000 nM.
As to `CNc1cc(Nc2cccn(-c3nc(C)co3)c2=O)nc2c(C(=O)NC3CC3)cnn12` [I-368], the figures for the concentration for half-maximal inhibition (IC50) in assay [1] and in assay [2] (setting [3]) were less than 100 nM and greater than 12500 nM, respectively.
Turning to `CNc1cc(Nc2cccn(-c3nc(C)co3)c2=O)nc2c(C(=O)N[C@H]3C[C@H]3F)cnn12` [I-369], the values for the IC50 in assay [1] and in assay [2] (setting [3]) were less than 100 nM and greater than 50000 nM, respectively.
As to `[2H]C([2H])([2H])Oc1ncccc1Nc1cc(NC)n2ncc(C(=O)N[C@H]3CC[C@@H]3O)c2n1` [I-373], the values for the half-maximal inhibitory concentration (IC50) in assay [1] and in assay [2] (setting [3]) were less than 100 nM and greater than 50000 nM, respectively.
`CNc1cc(Nc2cc(F)cn(-c3ccn(C)n3)c2=O)nc2c(C(=O)NC3CC3)cnn12` [I-378]: the results for the IC50 in assay [1] and in assay [2] (setting [3]) were less than 100 nM and greater than 12500 nM, respectively.
Taken in the same sequence, the figures for `CNc1cc(Nc2cc(F)cn(-c3ccn(C)n3)c2=O)nc2c(C(=O)N[C@H]3C[C@H]3F)cnn12` [I-379] were less than 100 nM and greater than 2500 nM.
Consider `CNc1cc(Nc2cc(F)cn(-c3cnn(C)c3)c2=O)nc2c(C(=O)NC3CC3)cnn12` [I-380], for which the IC50 was less than 100 nM in assay [1] and greater than 12500 nM in assay [2] (setting [3]).
Turning to `CNc1cc(Nc2cc(F)cn(-c3cnn(C)c3)c2=O)nc2c(C(=O)N[C@H]3C[C@H]3F)cnn12` [I-381], the 50% inhibitory concentration (IC50) is less than 100 nM in assay [1] and greater than 12500 nM in assay [2] (setting [3]).
For `CNc1cc(Nc2cc(F)cn(-c3cc(C)n(C)n3)c2=O)nc2c(C(=O)NC3CC3)cnn12` [I-384] the same measures were less than 100 nM and greater than 300 nM.
As to `CNc1cc(Nc2cc(F)cn(-c3cc(C)n(C)n3)c2=O)nc2c(C(=O)N[C@H]3C[C@H]3F)cnn12` [I-385], the IC50 is less than 100 nM in assay [1] and greater than 2500 nM in assay [2] (setting [3]).
For `CNc1cc(Nc2cccn(-c3nc(C)co3)c2=O)nc2c(C(=O)NC3CCC3)cnn12` [I-386] the same measures were less than 100 nM and greater than 50000 nM.
For `CNc1cc(Nc2cccnc2OC)nc2c(C(=O)NC3CCC3O)cnn12` (stereo not shown) [I-390, N-(2-hydroxycyclobutyl)-5-((2-methoxypyridin-3-yl)amino)-7-(methylamino) pyrazolo[1,5-a]pyrimidine-3-carboxamide] the same measures were less than 100 nM and greater than 50000 nM.
Taken in the same sequence, the figures for `CNc1cc(Nc2cccnc2OC2CC2)nc2c(C(=O)NC3CCC3O)cnn12` (stereo not shown) [I-392, 5-((2-cyclopropoxypyridin-3-yl)amino)-N-(2-hydroxycyclobutyl)-7-(methylamino)pyrazolo[1,5-a]pyrimidine-3-carboxamide] were less than 100 nM and greater than 50000 nM.
Take `CNc1cc(Nc2cccn(C3CCC4(CC3)OCCO4)c2=O)nc2c(C(=O)NC3CC3)cnn12` [I-393]: the IC50 in assay [1] is less than 100 nM; in assay [2] (setting [3]) it was greater than 12500 nM.
On to `CNc1cc(Nc2cccnc2OC)nc2c(C(=O)N[C@H]3CC[C@@H]3O)cnn12` [I-395], for which the IC50 is less than 100 nM in assay [1] and greater than 12500 nM in assay [2] (read-out: PBMC_GMCSF_pSTAT5 IC50, human PBMC, GM-CSF 5 ng/mL for 20 minutes, pSTAT5).
Take `CNc1cc(Nc2cccnc2OC)nc2c(C(=O)N[C@@H]3CC[C@H]3O)cnn12` [I-396]: the IC50 in assay [1] was less than 100 nM; in assay [2] (setting [3]), greater than 50000 nM.
For the molecule `CNc1cc(Nc2cccnc2OC2CC2)nc2c(C(=O)N[C@H]3CC[C@@H]3O)cnn12` [I-397], the values for the IC50 in assay [1] and in assay [2] (setting [3]) were less than 100 nM and greater than 50000 nM, respectively.
Taken in the same sequence, the figures for `CNc1cc(Nc2cccnc2OC2CC2)nc2c(C(=O)N[C@@H]3CC[C@@H]3O)cnn12` [I-401] were less than 100 nM and greater than 12500 nM.
For `CNc1cc(Nc2cccn(-c3cnn(CC4CCOCC4)c3)c2=O)nc2c(C(=O)NC3CC3)cnn12` [I-406], the IC50 in assay [1] was 100 to 500 nM; in assay [2] (setting [3]), greater than 12500 nM.
In the case of `CNc1cc(Nc2cccn(-c3cnn(CC4CCOCC4)c3)c2=O)nc2c(C(=O)N[C@H]3C[C@H]3F)cnn12` [I-407], the 50% inhibitory concentration (IC50) in assay [1] was less than 100 nM; in assay [2] (setting [3]), greater than 12500 nM.
For `CCONC(=O)c1cnn2c(NC)cc(Nc3cccnc3OC)nc12` [I-409, N-ethoxy-5-((2-methoxypyridin-3-yl)amino)-7-(methylamino)pyrazolo[1,5-a]pyrimidine-3-carboxamide] the same measures were less than 100 nM and greater than 12500 nM.
For `[2H]C([2H])([2H])Oc1ncccc1Nc1cc(NC)n2ncc(C(=O)N[C@@H]3CC[C@H]3O)c2n1` [I-410] the same measures were less than 100 nM and greater than 12500 nM.
`CNc1cc(Nc2cccn(C[C@@H]3CCCCO3)c2=O)nc2c(C(=O)NC3CC3)cnn12` [I-413]: the concentration for half-maximal inhibition (IC50) in assay [1] was less than 100 nM; in assay [2] (setting [3]) it was greater than 50000 nM.
For the molecule `CNc1cc(Nc2cccn(C3CCC4(CC3)OCCO4)c2=O)nc2c(C(=O)N[C@@H]3C[C@@H]3F)cnn12` [I-415, N-((1R,2S)-2-fluorocyclopropyl)-7-(methylamino)-5-((2-oxo-1-(1,4-dioxaspiro 14.51 decan-8-yl)-1,2-dihydropyridin-3-yl)amino)pyrazolo[1,5-a]pyrimidine-3-carboxamide], the values for the concentration for half-maximal inhibition (IC50) in assay [1] and in assay [2] (setting [3]) were less than 100 nM and greater than 50000 nM, respectively.
Taken in the same sequence, the figures for `CNc1cc(Nc2cccnc2OC)nc2c(C(=O)N[C@@H]3CCC[C@H]3O)cnn12` [I-423, N-((1R,2R)-2-hydroxycyclopentyl)-5-((2-methoxypyridin-3-yl)amino)-7-(methylamino)pyrazolo[1,5-a]pyrimidine-3-carboxamide] were less than 100 nM and greater than 50000 nM.
Consider `CNc1cc(Nc2cccnc2OC)nc2c(C(=O)NCC3(CO)CC3)cnn12` [I-425], for which the IC50 was less than 100 nM in assay [1] and greater than 50000 nM in assay [2] (Homo sapiens, PBMC, 20 min, read-out: PBMC_GMCSF_pSTAT5 IC50).
As to `CNc1cc(Nc2cccnc2OC2CC2)nc2c(C(=O)NCC3(CO)CC3)cnn12` [I-426], the figures for the 50% inhibitory concentration (IC50) in assay [1] and in assay [2] (setting [3]) were less than 100 nM and greater than 50000 nM, respectively.
For `CNc1cc(Nc2cccn(C[C@@H]3CCCCO3)c2=O)nc2c(C(=O)N[C@@H]3C[C@@H]3F)cnn12` [I-428] the same measures were less than 100 nM and greater than 50000 nM.
Taken in the same sequence, the figures for `CNc1cc(Nc2cccnc2OC)nc2c(C(=O)N[C@H]3CC[C@H]3O)cnn12` [I-429] were less than 100 nM and greater than 50000 nM.
Turning to `CNc1cc(Nc2cccnc2OC2CC2)nc2c(C(=O)NCC(C)CO)cnn12` (stereo not shown) [I-435], the IC50 in assay [1] was 100 to 500 nM; in assay [2] (setting [3]), greater than 50000 nM.
As for `CNc1cc(Nc2cccnc2OC)nc2c(C(=O)N[C@H]3C[C@@H]3O)cnn12` [I-438, N-((1S,2S)-2-hydroxycyclopropyl)-5-((2-methoxypyridin-3-yl)amino)-7-(methylamino)pyrazolo[1,5-a]pyrimidine-3-carboxamide], the IC50 in assay [1] is less than 100 nM; in assay [2] (setting [3]), greater than 50000 nM.
On to `CNc1cc(Nc2cccn([C@@H]3CCCOC3)c2=O)nc2c(C(=O)N[C@@H]3C[C@@H]3F)cnn12` [I-474], for which the IC50 in assay [1] is less than 100 nM; in assay [2] (setting [3]) it was greater than 12500 nM.
